These results are taken from patent publication US10660877B2 (BRISTOL-MYERS SQUIBB COMPANY, priority 2016, dated 2020).

One test deals with human TLR8 (Homo sapiens (Human), UniProt Q9NR97). As to the kind of experiment: TLR8 inhibition reporter assay (HEK-Blue cells, SEAP reporter, R848 stimulation).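 Further: compounds tested from 0.05 nM to 50 µM, 22 h at 37 °C, SEAP measured with HEK-Blue Detection, inhibition relative to agonist plus DMSO versus a known inhibitor.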
The next test concerns the target human TLR7 (Homo sapiens (Human), UniProt Q9NYK1). As to the kind of experiment: TLR7 inhibition reporter assay (HEK-Blue cells, SEAP reporter, gardiquimod stimulation). Format: cell-based. To be noted: HEK-Blue cells overexpressing human TLR7, gardiquimod 7.5 μM.
The target in another test is human TLR9 (Homo sapiens (Human), UniProt Q9NR96). As to the kind of experiment: TLR9 inhibition reporter assay (HEK-Blue cells, SEAP reporter, ODN2006 stimulation).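 Further: compounds tested over 0.05 nM to 50 µM, 22 h incubation, inhibition taken as SEAP signal drop from agonist plus DMSO wells toward a known inhibitor control.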
Sequence of human TLR9 (Q9NR96 26-1032): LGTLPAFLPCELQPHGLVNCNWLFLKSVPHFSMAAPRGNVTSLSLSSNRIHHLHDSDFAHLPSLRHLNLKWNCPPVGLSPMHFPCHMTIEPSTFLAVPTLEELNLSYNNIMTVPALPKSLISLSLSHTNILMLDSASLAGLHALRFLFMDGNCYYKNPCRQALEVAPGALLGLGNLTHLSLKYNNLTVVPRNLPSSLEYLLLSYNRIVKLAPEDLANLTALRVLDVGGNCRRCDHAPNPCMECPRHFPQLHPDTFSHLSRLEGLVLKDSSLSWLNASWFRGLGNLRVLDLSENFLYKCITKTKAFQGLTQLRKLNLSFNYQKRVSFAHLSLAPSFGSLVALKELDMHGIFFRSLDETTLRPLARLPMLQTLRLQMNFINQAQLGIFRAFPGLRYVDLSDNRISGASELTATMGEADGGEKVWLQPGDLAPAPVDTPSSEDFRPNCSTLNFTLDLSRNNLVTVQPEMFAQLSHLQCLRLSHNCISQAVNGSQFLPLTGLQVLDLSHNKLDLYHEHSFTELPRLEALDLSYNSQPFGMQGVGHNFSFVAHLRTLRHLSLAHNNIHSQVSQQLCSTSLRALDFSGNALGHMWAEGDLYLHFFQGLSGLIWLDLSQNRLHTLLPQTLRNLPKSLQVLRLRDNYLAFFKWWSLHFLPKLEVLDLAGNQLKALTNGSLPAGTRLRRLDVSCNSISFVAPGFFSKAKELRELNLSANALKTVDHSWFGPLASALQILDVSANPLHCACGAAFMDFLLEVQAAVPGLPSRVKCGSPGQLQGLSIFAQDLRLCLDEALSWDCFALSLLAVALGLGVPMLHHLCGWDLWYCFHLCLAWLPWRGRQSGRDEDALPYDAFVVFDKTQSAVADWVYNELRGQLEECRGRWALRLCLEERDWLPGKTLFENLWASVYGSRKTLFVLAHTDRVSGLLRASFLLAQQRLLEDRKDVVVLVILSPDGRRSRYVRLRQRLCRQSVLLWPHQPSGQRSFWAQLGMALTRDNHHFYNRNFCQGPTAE
[1] abbreviates: read-out: TLR8 IC50, HEK-Blue cells overexpressing human TLR8, R848 15.9 μM.
Where [2] appears, read: read-out: TLR9 IC50, HEK-Blue cells overexpressing human TLR9, ODN2006 5 nM.

Like-named read-outs stand apart in the source and are kept apart here.

Sequence of human TLR7 (Q9NYK1 27-1049): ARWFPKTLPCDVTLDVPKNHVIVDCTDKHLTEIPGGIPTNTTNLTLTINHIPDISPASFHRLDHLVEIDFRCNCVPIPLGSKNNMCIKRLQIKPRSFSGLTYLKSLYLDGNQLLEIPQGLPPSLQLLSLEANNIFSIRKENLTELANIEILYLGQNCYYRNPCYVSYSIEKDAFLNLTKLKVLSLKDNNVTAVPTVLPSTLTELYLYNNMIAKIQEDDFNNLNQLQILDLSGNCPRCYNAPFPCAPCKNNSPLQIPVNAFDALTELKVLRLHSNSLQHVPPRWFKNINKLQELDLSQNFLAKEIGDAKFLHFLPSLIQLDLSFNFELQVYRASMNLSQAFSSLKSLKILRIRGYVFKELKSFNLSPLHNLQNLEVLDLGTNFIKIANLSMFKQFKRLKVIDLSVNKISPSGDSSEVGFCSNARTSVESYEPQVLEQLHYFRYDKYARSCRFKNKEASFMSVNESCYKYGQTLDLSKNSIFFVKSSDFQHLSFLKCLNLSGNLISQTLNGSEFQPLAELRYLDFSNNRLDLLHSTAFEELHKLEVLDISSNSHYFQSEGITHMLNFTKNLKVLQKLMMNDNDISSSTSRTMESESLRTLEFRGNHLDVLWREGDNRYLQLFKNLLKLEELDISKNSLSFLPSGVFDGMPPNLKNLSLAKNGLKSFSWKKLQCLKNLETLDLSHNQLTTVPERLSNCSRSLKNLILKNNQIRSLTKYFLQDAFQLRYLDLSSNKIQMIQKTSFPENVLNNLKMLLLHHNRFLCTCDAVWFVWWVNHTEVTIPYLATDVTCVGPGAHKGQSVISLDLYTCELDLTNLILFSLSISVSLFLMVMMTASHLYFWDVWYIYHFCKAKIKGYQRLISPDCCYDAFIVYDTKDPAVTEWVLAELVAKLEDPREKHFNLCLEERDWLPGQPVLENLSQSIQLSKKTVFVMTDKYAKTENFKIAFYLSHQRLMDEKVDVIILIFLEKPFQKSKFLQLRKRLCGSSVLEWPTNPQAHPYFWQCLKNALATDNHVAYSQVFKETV
Sequence of human TLR8 (Q9NR97 27-1041): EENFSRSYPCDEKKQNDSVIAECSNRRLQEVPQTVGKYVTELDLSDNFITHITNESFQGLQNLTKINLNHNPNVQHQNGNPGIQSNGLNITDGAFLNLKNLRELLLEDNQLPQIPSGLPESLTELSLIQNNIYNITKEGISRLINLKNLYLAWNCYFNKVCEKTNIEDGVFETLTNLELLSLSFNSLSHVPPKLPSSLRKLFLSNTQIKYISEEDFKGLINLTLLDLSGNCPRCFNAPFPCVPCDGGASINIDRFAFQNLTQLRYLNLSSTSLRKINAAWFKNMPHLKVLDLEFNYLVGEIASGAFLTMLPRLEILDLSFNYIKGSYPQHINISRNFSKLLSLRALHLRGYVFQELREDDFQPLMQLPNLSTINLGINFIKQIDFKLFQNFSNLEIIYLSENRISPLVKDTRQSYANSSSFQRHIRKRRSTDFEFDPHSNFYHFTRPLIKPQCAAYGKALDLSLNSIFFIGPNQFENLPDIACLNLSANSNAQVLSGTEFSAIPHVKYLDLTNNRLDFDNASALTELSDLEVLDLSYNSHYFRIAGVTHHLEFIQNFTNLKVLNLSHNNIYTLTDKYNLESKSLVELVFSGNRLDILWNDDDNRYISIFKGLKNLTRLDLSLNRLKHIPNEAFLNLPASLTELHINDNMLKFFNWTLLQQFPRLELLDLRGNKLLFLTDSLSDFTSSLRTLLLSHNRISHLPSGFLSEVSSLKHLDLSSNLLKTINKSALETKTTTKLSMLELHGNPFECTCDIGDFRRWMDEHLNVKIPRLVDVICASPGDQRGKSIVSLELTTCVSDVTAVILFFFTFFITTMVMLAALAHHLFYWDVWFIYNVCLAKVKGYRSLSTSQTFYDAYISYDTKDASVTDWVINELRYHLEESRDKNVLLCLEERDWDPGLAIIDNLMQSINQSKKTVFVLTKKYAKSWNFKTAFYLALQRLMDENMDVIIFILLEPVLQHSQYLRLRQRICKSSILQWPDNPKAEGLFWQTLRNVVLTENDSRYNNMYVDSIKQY

`Cc1cc(-c2[nH]c3ccc(C4CCN(C(=O)CN(C)Cc5ncn(C)n5)CC4)cc3c2C(C)C)cc(C)n1` [Example 419, 1-(4-(2-(2,6-dimethylpyridin-4-yl)-3-isopropyl-1H-indol-5-yl)piperidin-1-yl)-2-(methyl((1-methyl-1H-1,2,4-triazol-3-yl)methyl)amino)ethan-1-one]: the results for the IC50 on human TLR8 (setting [1]), on human TLR7 and at human TLR9 (setting [2]) were 117 nM, 10.7 nM and 45500 nM, respectively.
Consider `Cc1cc(-c2[nH]c3ccc(C4CCN(C(=O)C5(C)CCN(C)CC5)CC4)cc3c2C(C)C)cc(C)n1` [Example 176, (1,4-dimethylpiperidin-4-yl)(4-(2-(2,6-dimethylpyridin-4-yl)-3-isopropyl-1H-indol-5-yl)piperidin-1-yl)methanone], for which the IC50 at human TLR8 (setting [1]) came out at 21.7 nM; against human TLR7, 11.1 nM; on human TLR9 (setting [2]), 663 nM.
For `Cc1cc(-c2[nH]c3ccc(C4CCN(C(=O)CN5CCN(CCO)CC5)CC4)cc3c2C(C)C)cc(C)n1` [Example 171, 1-(4-(2-(2,6-dimethylpyridin-4-yl)-3-isopropyl-1H-indol-5-yl)piperidin-1-yl)-2-(4-(2-hydroxyethyl)piperazin-1-yl)ethan-1-one], in that order: 18.3 nM, 2.6 nM and 542 nM.
With `Cc1cc(-c2[nH]c3ccc(C4CCN(CC(=O)N5CC[C@H](O)C5)CC4)cc3c2C(C)C)cc(C)n1` [Example 273, (S)-2-(4-(2-(2,6-dimethylpyridin-4-yl)-3-isopropyl-1H-indol-5-yl)piperidin-1-yl)-1-(3-hydroxypyrrolidin-1-yl)ethan-1-one], the IC50 on human TLR8 (TLR8 IC50, HEK-Blue cells overexpressing human TLR8, R848 15.9 μM) came to 5.4 nM; on human TLR7, 1.5 nM; on human TLR9 (TLR9 IC50, HEK-Blue cells overexpressing human TLR9, ODN2006 5 nM) it was 66 nM.
In the case of `Cc1c(-c2ccncc2)[nH]c2ccc(C3CCN(C4CCN(CC(C)C)CC4)CC3)cc12` [Example 782, 5-(1′-isobutyl-[1,4′-bipiperidin]-4-yl)-3-methyl-2-(pyridin-4-yl)-1H-indole], the IC50 turned out to be 383 nM at human TLR8 (setting [1]), 1310 nM on human TLR7 and 124 nM at human TLR9 (setting [2]).
`Cc1cc(-c2[nH]c3ccc(C4CCN(Cc5ccn(C)n5)CC4)cc3c2C(C)C)cc(C)n1` [Example 445, 2-(2,6-dimethylpyridin-4-yl)-3-isopropyl-5-(1-((1-methyl-1H-pyrazol-3-yl)methyl)piperidin-4-yl)-1H-indole]: the IC50 stood at 0.7 nM on human TLR8 (setting [1]), 3.6 nM against human TLR7 and 314 nM at human TLR9 (setting [2]).
For `Cc1cc(-c2[nH]c3ccc(C4CCN(CC(=O)N(C)CC(O)c5ccccc5)CC4)cc3c2C(C)C)cc(C)n1` (stereo not drawn) [Example 296, 2-(4-(2-(2,6-dimethylpyridin-4-yl)-3-isopropyl-1H-indol-5-yl)piperidin-1-yl)-N-(2-hydroxy-2-phenylethyl)-N-methylacetamide], in that order: 46.2 nM, 10.5 nM and 553 nM.
Take `Cc1cc(-c2[nH]c3ccc(C4CCN(C(=O)CN5CC(=O)NC5=O)CC4)cc3c2C(C)C)cc(C)n1` [Example 151, 1-(2-(4-(2-(2,6-dimethylpyridin-4-yl)-3-isopropyl-1H-indol-5-yl)piperidin-1-yl)-2-oxoethyl)imidazolidine-2,4-dione]: the IC50 at human TLR8 (setting [1]) came out at 83.8 nM; against human TLR7, 15 nM; at human TLR9 (setting [2]), 46700 nM.
For `Cc1cc(-c2[nH]c3ccc(C4CCN(C(=O)CN(C)CC(C)(C)O)CC4)cc3c2C(C)C)cc(C)n1` [Example 401, 1-(4-(2-(2,6-dimethylpyridin-4-yl)-3-isopropyl-1H-indol-5-yl)piperidin-1-yl)-2-((2-hydroxy-2-methylpropyl)(methyl)amino) ethan-1-one], in that order: 53 nM, 9 nM and 1060 nM.
For `Cc1cc(-c2[nH]c3ccc(C4CCN(CC(F)(F)F)CC4)cc3c2C(C)C)cc(C)n1` [Example 310, 2-(2,6-dimethylpyridin-4-yl)-3-isopropyl-5-(1-(2,2,2-trifluoroethyl)piperidin-4-yl)-1H-indole], in that order: 895 nM, 230 nM and 29900 nM.
Take `Cc1cc(-c2[nH]c3ccc(C4CCNCC4)cc3c2C(C)(C)C)cc(C)n1` [Example 96, 3-(tert-butyl)-2-(2,6-dimethylpyridin-4-yl)-5-(piperidin-4-yl)-1H-indole]: the half-maximal inhibitory concentration (IC50) turned out to be 23.3 nM at human TLR8 (setting [1]), 9.1 nM against human TLR7 and 1320 nM on human TLR9 (setting [2]).
Take `Cc1cc(-c2[nH]c3ccc(C4CCN(C(=O)CC5CCOCC5)CC4)cc3c2C(C)C)cc(C)n1` [Example 106, 1-(4-(2-(2,6-dimethylpyridin-4-yl)-3-isopropyl-1H-indol-5-yl)piperidin-1-yl)-2-(tetrahydro-2H-pyran-4-yl)ethan-1-one]: the values for the concentration for half-maximal inhibition (IC50) on human TLR8 (setting [1]), at human TLR7 and at human TLR9 (setting [2]) were 67.4 nM, 8.2 nM and 30600 nM, respectively.
Turning to `CCC(CC)N1CCC(c2ccc3[nH]c(-c4cc(C)nc(C)c4)c(C(C)C)c3c2)CC1` [Example 436, 2-(2,6-dimethylpyridin-4-yl)-3-isopropyl-5-(1-(pentan-3-yl)piperidin-4-yl)-1H-indole], the IC50 was found to be 4.7 nM at human TLR8 (setting [1]), 4.5 nM at human TLR7 and 94 nM at human TLR9 (setting [2]).
For `CC(=O)Nc1ccc(S(=O)(=O)N2CCC(c3ccc4[nH]c(-c5ccnc(C)c5)c(C(C)C)c4c3)CC2)cc1` [Example 552, N-(4-((4-(3-isopropyl-2-(2-methylpyridin-4-yl)-1H-indol-5-yl)piperidin-1-yl)sulfonyl)phenyl)acetamide], in that order: 111 nM, 130 nM and above 50000 nM.
For `Cc1cc(-c2[nH]c3ccc(C4CCN(C(=O)CN5CCOCC5=O)CC4)cc3c2C(C)C)cc(C)n1` [Example 161, 4-(2-(4-(2-(2,6-dimethylpyridin-4-yl)-3-isopropyl-1H-indol-5-yl)piperidin-1-yl)-2-oxoethyl)morpholin-3-one], in that order: 49.4 nM, 7.9 nM and above 50000 nM.
For `Cc1cc(-c2[nH]c3ccc(C4CCN(Cc5ccn(C)n5)CC4)cc3c2C(C)C)c(F)cn1` [Example 692], in that order: 0.9 nM, 10.3 nM and 1480 nM.
As to `Cc1cc(-c2[nH]c3ccc(C4CCN(C(=O)C5(N(C)C)CC5)CC4)cc3c2C(C)C)cc(C)n1` [Example 172, (1-(dimethylamino)cyclopropyl)(4-(2-(2,6-dimethylpyridin-4-yl)-3-isopropyl-1H-indol-5-yl)piperidin-1-yl)methanone], the IC50 at human TLR8 (setting [1]) is 101 nM; against human TLR7 it was 7.9 nM; at human TLR9 (setting [2]) it was 5100 nM.
For `Cc1nccc(-c2[nH]c3ccc(C4CCNCC4)cc3c2C(C)C)c1N` [Example 13, 4-(3-isopropyl-5-(piperidin-4-yl)-1H-indol-2-yl)-2-methylpyridin-3-amine], in that order: 90 nM, 16.1 nM and 419 nM.
For `CNCCN1CCC(c2ccc3[nH]c(-c4ccnc(C#N)c4)c(C)c3c2)CC1` [Example 755, 4-(3-methyl-5-(1-(2-(methylamino)ethyl)piperidin-4-yl)-1H-indol-2-yl)picolinonitrile], in that order: 86.6 nM, 2650 nM and 599 nM.
For `Cc1cc(-c2[nH]c3ccc(C4CCN(C5COC5)CC4)cc3c2C(C)C)cc(C)n1` [Example 452, 2-(2,6-dimethylpyridin-4-yl)-3-isopropyl-5-(1-(oxetan-3-yl)piperidin-4-yl)-1H-indole], in that order: 16.7 nM, 4.9 nM and 1390 nM.
For `Cc1cc(-c2[nH]c3ccc(C4CCN(CC(N)=O)CC4)cc3c2C(C)C)c(F)cn1` [Example 652, 2-(4-(2-(5-fluoro-2-methylpyridin-4-yl)-3-isopropyl-1H-indol-5-yl)piperidin-1-yl)acetamide], the 50% inhibitory concentration (IC50) on human TLR8 (setting [1]) came out at 3 nM; against human TLR7, 1.5 nM; at human TLR9 (setting [2]) it was 1290 nM.
Consider `Cc1cc(-c2[nH]c3ccc(C4CCN(C(=O)CN5C[C@@H](F)C[C@H]5CO)CC4)cc3c2C(C)C)cc(C)n1` [Example 409, 1-(4-(2-(2,6-dimethylpyridin-4-yl)-3-isopropyl-1H-indol-5-yl)piperidin-1-yl)-2-((2S,4S)-4-fluoro-2-(hydroxymethyl)pyrrolidin-1-yl)ethan-1-one], for which the IC50 at human TLR8 (setting [1]) came to 67.9 nM; on human TLR7 it was 4.1 nM; at human TLR9 (setting [2]), 2530 nM.
For `Cc1cc(-c2[nH]c3ccc(C4CCN(C(=O)CN5CCOCC5)CC4)cc3c2C(C)C)cc(C)n1` [Example 350, 1-(4-(2-(2,6-dimethylpyridin-4-yl)-3-isopropyl-1H-indol-5-yl)piperidin-1-yl)-2-morpholinoethan-1-one], in that order: 29 nM, 5.3 nM and 3910 nM.
For the compound `Cc1cc(-c2[nH]c3ccc(C4CCN(C5CCCOC5)CC4)cc3c2C(C)C)c(C)cn1` (stereo not drawn) [Example 726, 2-(2,5-dimethylpyridin-4-yl)-3-isopropyl-5-(1-(tetrahydro-2H-pyran-3-yl)piperidin-4-yl)-1H-indole], the figures for the IC50 at human TLR8 (setting [1]), at human TLR7 and on human TLR9 (setting [2]) were 1.1 nM, 14.2 nM and 1450 nM, respectively.
`Cc1cc(-c2[nH]c3ccc(C4CCN(C(=O)CC#N)CC4)cc3c2C(C)C)ccn1` [Example 616, 3-(4-(3-isopropyl-2-(2-methylpyridin-4-yl)-1H-indol-5-yl)piperidin-1-yl)-3-oxopropanenitrile]: the IC50 at human TLR8 (setting [1]) stood at 121 nM; at human TLR7, 33.7 nM; on human TLR9 (setting [2]), 32900 nM.
